Assay results reported in ChEMBL document CHEMBL1151394, “Cytotoxic agent from Senecio anonymus wood” (1982).
In brackets after ≈: the same amount, converted by molar mass.

Legend:
[1] = tested on: KB; assay: Cytotoxicity against human KB cells; format: functional; settings: read-out: ED50 (the source's name)
[2] = tested on: P388; assay: In vivo cytotoxicity against mouse P388 cells; format: functional

| SMILES | EC50 [1] [µg/mL] | T/C [2] [%] |
| --- | --- | --- |
| CCOC(=O)CC1(O)C=CC(=O)C=C1 | 3.3 (≈ 16.8 µM) |  |
| COC(=O)CC1(O)C=CC(=O)C=C1 [JACARANONE] | 2.1 (≈ 11.5 µM) | 165 |
